We go through three molecules from patent US8906865B2, “Treatment of inflammation and/or endotoxic shock” (ISIS Innovation Limited, priority 2007, dated 2014).

Experiment [1] concerns C57B16/J mice. The experiment is described as follows: Intraperitoneal Chemerin15-mouse alone (no zymosan): peritoneal cell recruitment and TNFα. Type of experiment: in vivo. The conditions noted are these: 0.32 ng/kg i.p., 4 h. The method, then: Male C57B16/J mice (8-12 weeks) were injected intra-peritoneally with 0.5 ml PBS or 0.5 ml Chemerin15-mouse (0.32 ng/kg). After 4 hours three animals per treatment group were sacrificed and peritoneal cavities washed with 5 ml PBS-3 mM EDTA. Total cell counts were obtained using Trypan blue exclusion test. For determination of cellular composition (Neutrophils vs mononuclear phagocytes), cells were blocked with 2.4G2 anti-FcgRII/III mAB for 5 mins and stained with PE-conjugated anti-mouse Ly-6G and FITC-conjugated anti-mouse 7/4 mAB for 10 mins. Cells were fixed in 1% formaldehyde prior to FACS analysis with CellQuest software. Gates were constructed around two populations, the neutrophils (N; 7/4^high, Ly-6G^high) and inflammatory monocytes (Mo; 7/4^high, Ly-6G^low). C15 refer to Chemerin15-mouse. p<0.01 ** relative to PBS-treated. Ns refers to no statistically significant difference p>0.05.

The subject of experiment [2] is PMθ stimulated with Zymosan. The experiment is described as follows: TNFα secretion by murine macrophages stimulated with Zymosan (ELISA). Type of experiment: cell-based, mouse. The conditions noted are these: 1 pM pre-treatment 1 h, Zymosan 15 h. The method, then: PMθ were cultured under various conditions: Untreated; Zymosan for 15 h; Chemerin (1 pM) pre-treatment for 1 h+Zymosan for 15 h. The bar graphs show mean expression of TNFα as determined by ELISA±SEM. Experiments were performed with triplicate determinations for each treatment. Representative data from three independent experiments employing cells from different donors are shown in FIG. 12. p<0.001 ***; p<0.01 ** relative to Zymosan-treated samples. Dexa refers to dexamethasone ([…]), nd refers to below the lower limit of detection (0.25 ng/ml).
(In general: In an ELISA, binding on a coated surface is turned into a signal by an enzyme label.)

The subject of experiment [3] is PMθ (peritoneal macrophages). The experiment in a line: Checkerboard analysis (chemotaxis versus chemokinesis). In kind it is cell-based, mouse. The conditions noted are these: for Chemotaxis versus chemokinesis (FIG. 13): C140 10-1000 pM, C15m 10-1000 pM. The method, then: Checkerboard analysis allows differentiation between chemotaxis and chemokinesis. Chemotaxis is indicated by migration toward a higher concentration of chemoattractant in the lower well. Chemokinesis refers to increased non-directional cell movement and occurs regardless of the concentration gradient present. Checkerboard analysis was performed by pre-incubating cells with C140 (10-500 pM) or C15m (10-1000 pM) and allowing them to migrate towards C140 (10-1000 pM) or C15m (10-1000 pM), respectively in the lower well to form a checkerboard of concentrations.
More specifically, PMθ were recruited following a 4 day peritoneal stimulation with BioGEL beads. Peritoneal cavities of male C57B16/J mice were lavaged with 5 ml PBS-2 mM EDTA. Cells were centrifuged and resuspended in RPMI supplemented with 0.5% BSA and 25 mM Hepes. Cells (0.5×10^6) were incubated with C140 or C15m for 30 mins before the chemotaxis assay and then allowed to migrate towards chemoattractant in the bottom well over 4 h. Filters were fixed in 4% formalin, then nuclei were stained with DAPI and visualised. Serum free media (SFM) was used as a negative control (−/−) and the CC chemokine RANTES as a positive control (25 ng/ml). The bar graphs in FIG. 13 show the mean Migration Index±SEM for each treatment group. Each bar represents at least triplicate wells and at least 3 pictures taken per treatment. p<0.001 *** relative to SFM-treated wells.

In experiment [4] the test system is peritoneal macrophages. The experiment in a line: Zymosan recognition / phagocytosis by macrophages (FITC-zymosan, FACS). In kind it is cell-based, mouse. The method, then:
For in vitro recognition of zymosan by macrophages, peritoneal exudate cells were isolated by lavage with ice-cold 2 mM EDTA in PBS from mice that had been treated intraperitoneally 4 d before with Biogel beads (2% w/v). Macrophages were plated in 24-well plates at a density of 2.5×10^5 cells per well in Optimem medium. Cells were washed three times with medium before the addition of Fluorescein isothiocyanate (FITC)-labeled zymosan (Invitrogen) in recognition assays at macrophage/particle ratios of 10:1 in the presence of either 0.1 pM, 1 pM, 10 pM, 100 pM or 1 nM Chemerin15. Vehicle=control sample without Chemerin15. FITC-zymosan uptake was followed by FACS analysis and is expressed as a relative recognition index i.e the ratio of %® cells uptaking zymosan×the ratio of geometric means C15 treated macrophages/geometric mean of macrophages treated with vehicle.

Experiment [5] has as its system C57B16/J mice, zymosan-induced peritonitis. The experiment is described as follows: Zymosan-induced peritonitis in mice. The conditions noted are these: single i.p. dose; 4 h post-zymosan. Type of experiment: in vivo, mouse.
For experiment [6], the system named is Murine peritoneal macrophages (PMΦ). The experiment is described as follows: Macrophage cytokine mRNA levels by qRT-PCR (IL-10, TGFβ), normalized to HPRT. The conditions noted are these: chemerin. In kind it is cell-based, mouse. The method, then: FIGS. 1A-F—FIGS. 1A and 1B illustrate that Chemerin140 suppresses production of inflammatory mediators by macrophages in a proteolysis dependent fashion. Supernatants from macrophages or activated macrophages (treated with 100 ng/ml LPS and 20 ng/ml interferon gamma were assayed for cytokine expression using Luminex and ELISA assays. Cells were incubated in the presence or absence of recombinant murine chemerin or dexamethasone at the indicated doses and in the absence or presence of the protease inhibitor leupeptin ([…]). FIG. 1C—Macrophage cytokine mRNA levels were quantitated by qRT-PCR (IL-10, TGFβ) and normalized to HPRT. FIG. 1D—PMΦ were pre-treated with chemerin (0.1-1 pM)±pertussis toxin (PTX; 200 ng/ml) prior to LPS/IFNγ-challenge. FIG. 1E—PMΦ were pre-treated with chemerin (1 pM) for 1 h±PTX and then stimulated with LPS/IFNγ for 4 h, 8 h or 15 h. ***, p<0.001; **, p<0.01; *, p<0.05 relative to LPS/IFNγ-treated samples. ###, p<0.001; ##, p<0.01; #, p<0.05 relative to chemerin-treated samples. […]
Total RNA was extracted using Qiagen RNeasy kits, reverse transcribed and subjected to qRT-PCR using the Sybr-Green method. Data was analysed using the 2-ΔΔCT method (Livak, K. J. & Schmittgen T. D. (2001), Methods 25:402-408).
(Real-time PCR tracks product formation cycle by cycle.)

In the case of “AGEDPHGYFLPGQFA (listed as Mus sp.) [C15]”, in experiment [1], the “Monocyte or neutrophil migration after peptide alone (FIG. 9)” value is “does not cause monocyte or neutrophil migration” and the “Peritoneal TNFα after peptide alone (FIG. 9)” value was “significant reduction in TNFα”. For the same molecule, the “Suppression of Zymosan-induced TNF expression (FIG. 12)” value in experiment [2] is on record as 21%. In experiment [3], the “Induction of macrophage chemotaxis relative to C140” value is on record as “much weaker inducer of macrophage chemotaxis” and the “Chemotaxis versus chemokinesis (FIG. 13)” value is on record as “elicit true chemotaxis rather than chemokinesis”. Besides, in experiment [4] (0.1 pM-1 nM, FITC-zymosan), the “Macrophage phagocytosis of zymosan (FIG. 15)” value is recorded as “induces macrophage phagocytosis of zymosan”. Also, in experiment [4] (tested 0.1 pM-1 nM), the “Concentration of greatest induction of macrophage phagocytosis” value was found to be 10 pM. For the same molecule, the “Lowest dose with significant anti-inflammatory effects (FIG. 14B)” value in experiment [5] amounted to 4 pg/mouse.
On to “AGEDPHGYFLPGQFAFS (listed as Mus sp.) [C17m]”, for which, in experiment [2], the “Suppression of Zymosan-induced TNF expression (FIG. 12)” value stood at 30%.

B1: Chemerin: 140 amino acid mouse Chemerin protein of Sequence ID no: 34 (protein, listed as Mus sp.)
chain: TVGTEPELSETQRRSLQVALEEFHKHPPVQLAFQEIGVDRAEEVLFSAGTFVRLEFKLQQTNCPKKDWKKPECTIKPNGRRRKCLACIKMDPKGKILGRIVHCPILKQGPQDPQELQCIKIAQAGEDPHGYFLPGQFAFS
B1: in experiment [6], the “Induction of IL-10 mRNA expression (FIG. 1C)” value was found to be 89% and the “Induction of TGFβ mRNA expression (FIG. 1C)” value is reported as 54%. Also, the “Chemotaxis versus chemokinesis (FIG. 13)” value in experiment [3] is recorded as “elicit true chemotaxis rather than chemokinesis”.
